Laboratory results published in the NIST ThermoML archive (doi:10.1021/je050484k).
Values joined by “and” are separate entries in the source; they are usually repeats but may differ in a detail not shown here. Equal values may be shown once. ± gives the expanded uncertainty stated by the source.

Columns and labels:
[1] = for surface tension liquid-gas: Pendant drop shape; for mass density: 101 kPa, Liquid
[2] = xn = mol fraction of the nth substance listed; conditions: for surface tension liquid-gas: Pendant drop shape; for mass density: 101 kPa, Liquid

Cc1ccc(C)c(C)c1 [1,2,4-trimethylbenzene]
surface tension liquid-gas ([1]; 298.15 K): 29.29 ± 0.33 mN/m
mass density ([1]; 298.15 K): 871.65 ± 0.48 kg/m3
surface tension liquid-gas ([1]; 313.15 K): 27.67 ± 0.31 mN/m
mass density ([1]; 313.15 K): 859.54 ± 0.49 kg/m3

Cc1ccc(C)c(C)c1 [1,2,4-trimethylbenzene] + COCCO
surface tension liquid-gas ([2]; 298.15 K, x2 = 0): 29.29 ± 0.33 mN/m
surface tension liquid-gas ([2]; 298.15 K, x2 = 0.0976): 29.36 ± 0.32 mN/m
surface tension liquid-gas ([2]; 298.15 K, x2 = 0.2031): 29.36 ± 0.32 mN/m
surface tension liquid-gas ([2]; 298.15 K, x2 = 0.3021): 29.35 ± 0.32 mN/m
surface tension liquid-gas ([2]; 298.15 K, x2 = 0.3999): 29.44 ± 0.32 mN/m
surface tension liquid-gas ([2]; 298.15 K, x2 = 0.5015): 29.57 ± 0.32 mN/m
surface tension liquid-gas ([2]; 298.15 K, x2 = 0.6035): 29.78 ± 0.32 mN/m
surface tension liquid-gas ([2]; 298.15 K, x2 = 0.7033): 30.03 ± 0.32 mN/m
surface tension liquid-gas ([2]; 298.15 K, x2 = 0.7974): 30.34 ± 0.32 mN/m
surface tension liquid-gas ([2]; 298.15 K, x2 = 0.9014): 30.61 ± 0.32 mN/m
mass density ([2]; 298.15 K, x2 = 0): 871.65 ± 0.48 kg/m3
mass density ([2]; 298.15 K, x2 = 0.0507): 873.14 ± 0.47 kg/m3
mass density ([2]; 298.15 K, x2 = 0.0976): 875.08 ± 0.46 kg/m3
mass density ([2]; 298.15 K, x2 = 0.154): 877.75 ± 0.45 kg/m3
mass density ([2]; 298.15 K, x2 = 0.2031): 880.31 ± 0.44 kg/m3
mass density ([2]; 298.15 K, x2 = 0.2556): 883.31 ± 0.43 kg/m3
mass density ([2]; 298.15 K, x2 = 0.3021): 886.13 ± 0.42 kg/m3
mass density ([2]; 298.15 K, x2 = 0.3482): 889.1 ± 0.41 kg/m3
mass density ([2]; 298.15 K, x2 = 0.3999): 892.67 ± 0.4 kg/m3
mass density ([2]; 298.15 K, x2 = 0.453): 896.6 ± 0.39 kg/m3
mass density ([2]; 298.15 K, x2 = 0.5015): 900.39 ± 0.38 kg/m3
mass density ([2]; 298.15 K, x2 = 0.5513): 904.61 ± 0.37 kg/m3
mass density ([2]; 298.15 K, x2 = 0.6035): 909.35 ± 0.35 kg/m3
mass density ([2]; 298.15 K, x2 = 0.6526): 914.1 ± 0.34 kg/m3
mass density ([2]; 298.15 K, x2 = 0.7033): 919.38 ± 0.33 kg/m3
mass density ([2]; 298.15 K, x2 = 0.7534): 924.98 ± 0.32 kg/m3
mass density ([2]; 298.15 K, x2 = 0.7974): 930.26 ± 0.31 kg/m3
mass density ([2]; 298.15 K, x2 = 0.8455): 936.54 ± 0.29 kg/m3
mass density ([2]; 298.15 K, x2 = 0.9014): 944.31 ± 0.28 kg/m3
mass density ([2]; 298.15 K, x2 = 0.9507): 951.9 ± 0.27 kg/m3
surface tension liquid-gas ([2]; 313.15 K, x2 = 0): 27.67 ± 0.31 mN/m
surface tension liquid-gas ([2]; 313.15 K, x2 = 0.1019): 27.78 ± 0.31 mN/m
surface tension liquid-gas ([2]; 313.15 K, x2 = 0.2002): 27.72 ± 0.31 mN/m
surface tension liquid-gas ([2]; 313.15 K, x2 = 0.3004): 27.72 ± 0.31 mN/m
surface tension liquid-gas ([2]; 313.15 K, x2 = 0.4007): 27.79 ± 0.3 mN/m
surface tension liquid-gas ([2]; 313.15 K, x2 = 0.4991): 27.84 ± 0.3 mN/m
surface tension liquid-gas ([2]; 313.15 K, x2 = 0.6006): 28.03 ± 0.3 mN/m
surface tension liquid-gas ([2]; 313.15 K, x2 = 0.7002): 28.29 ± 0.3 mN/m
surface tension liquid-gas ([2]; 313.15 K, x2 = 0.7999): 28.59 ± 0.3 mN/m
surface tension liquid-gas ([2]; 313.15 K, x2 = 0.9007): 28.96 ± 0.31 mN/m
mass density ([2]; 313.15 K, x2 = 0): 859.54 ± 0.49 kg/m3
mass density ([2]; 313.15 K, x2 = 0.0494): 860.68 ± 0.48 kg/m3
mass density ([2]; 313.15 K, x2 = 0.1019): 862.75 ± 0.47 kg/m3
mass density ([2]; 313.15 K, x2 = 0.15): 864.92 ± 0.46 kg/m3
mass density ([2]; 313.15 K, x2 = 0.2002): 867.4 ± 0.45 kg/m3
mass density ([2]; 313.15 K, x2 = 0.2486): 869.95 ± 0.44 kg/m3
mass density ([2]; 313.15 K, x2 = 0.3004): 873 ± 0.43 kg/m3
mass density ([2]; 313.15 K, x2 = 0.3507): 876.1 ± 0.42 kg/m3
mass density ([2]; 313.15 K, x2 = 0.4007): 879.45 ± 0.41 kg/m3
mass density ([2]; 313.15 K, x2 = 0.4502): 883.02 ± 0.4 kg/m3
mass density ([2]; 313.15 K, x2 = 0.4991): 886.8 ± 0.39 kg/m3
mass density ([2]; 313.15 K, x2 = 0.5513): 891.2 ± 0.38 kg/m3
mass density ([2]; 313.15 K, x2 = 0.6006): 895.56 ± 0.37 kg/m3
mass density ([2]; 313.15 K, x2 = 0.653): 900.55 ± 0.36 kg/m3
mass density ([2]; 313.15 K, x2 = 0.7002): 905.44 ± 0.35 kg/m3
mass density ([2]; 313.15 K, x2 = 0.7504): 910.91 ± 0.33 kg/m3
mass density ([2]; 313.15 K, x2 = 0.7999): 916.79 ± 0.32 kg/m3
mass density ([2]; 313.15 K, x2 = 0.8496): 923.25 ± 0.31 kg/m3
mass density ([2]; 313.15 K, x2 = 0.9007): 930.3 ± 0.29 kg/m3
mass density ([2]; 313.15 K, x2 = 0.9504): 937.74 ± 0.28 kg/m3

Cc1ccc(C)c(C)c1 [1,2,4-trimethylbenzene] + COCCOC
surface tension liquid-gas ([2]; 298.15 K, x2 = 0): 29.29 ± 0.33 mN/m
surface tension liquid-gas ([2]; 298.15 K, x2 = 0.103): 28.71 ± 0.32 mN/m
surface tension liquid-gas ([2]; 298.15 K, x2 = 0.205): 28.11 ± 0.31 mN/m
surface tension liquid-gas ([2]; 298.15 K, x2 = 0.3006): 27.54 ± 0.3 mN/m
surface tension liquid-gas ([2]; 298.15 K, x2 = 0.398): 26.97 ± 0.3 mN/m
surface tension liquid-gas ([2]; 298.15 K, x2 = 0.5005): 26.43 ± 0.29 mN/m
surface tension liquid-gas ([2]; 298.15 K, x2 = 0.601): 25.9 ± 0.28 mN/m
surface tension liquid-gas ([2]; 298.15 K, x2 = 0.6979): 25.42 ± 0.28 mN/m
surface tension liquid-gas ([2]; 298.15 K, x2 = 0.7977): 24.92 ± 0.27 mN/m
surface tension liquid-gas ([2]; 298.15 K, x2 = 0.9018): 24.41 ± 0.27 mN/m
mass density ([2]; 298.15 K, x2 = 0): 871.65 ± 0.48 kg/m3
mass density ([2]; 298.15 K, x2 = 0.0488): 871.13 ± 0.47 kg/m3
mass density ([2]; 298.15 K, x2 = 0.103): 870.57 ± 0.46 kg/m3
mass density ([2]; 298.15 K, x2 = 0.1497): 870.09 ± 0.45 kg/m3
mass density ([2]; 298.15 K, x2 = 0.205): 869.53 ± 0.44 kg/m3
mass density ([2]; 298.15 K, x2 = 0.2496): 869.07 ± 0.44 kg/m3
mass density ([2]; 298.15 K, x2 = 0.3006): 868.54 ± 0.43 kg/m3
mass density ([2]; 298.15 K, x2 = 0.3515): 868.02 ± 0.42 kg/m3
mass density ([2]; 298.15 K, x2 = 0.398): 867.54 ± 0.41 kg/m3
mass density ([2]; 298.15 K, x2 = 0.4492): 867.02 ± 0.41 kg/m3
mass density ([2]; 298.15 K, x2 = 0.5005): 866.49 ± 0.4 kg/m3
mass density ([2]; 298.15 K, x2 = 0.5491): 865.99 ± 0.39 kg/m3
mass density ([2]; 298.15 K, x2 = 0.601): 865.46 ± 0.39 kg/m3
mass density ([2]; 298.15 K, x2 = 0.649): 864.97 ± 0.38 kg/m3
mass density ([2]; 298.15 K, x2 = 0.6979): 864.48 ± 0.38 kg/m3
mass density ([2]; 298.15 K, x2 = 0.7506): 863.94 ± 0.37 kg/m3
mass density ([2]; 298.15 K, x2 = 0.7977): 863.46 ± 0.37 kg/m3
mass density ([2]; 298.15 K, x2 = 0.8501): 862.93 ± 0.36 kg/m3
mass density ([2]; 298.15 K, x2 = 0.9018): 862.41 ± 0.36 kg/m3
mass density ([2]; 298.15 K, x2 = 0.9463): 861.95 ± 0.36 kg/m3
surface tension liquid-gas ([2]; 313.15 K, x2 = 0): 27.67 ± 0.31 mN/m
surface tension liquid-gas ([2]; 313.15 K, x2 = 0.1019): 27.02 ± 0.3 mN/m
surface tension liquid-gas ([2]; 313.15 K, x2 = 0.2002): 26.43 ± 0.3 mN/m
surface tension liquid-gas ([2]; 313.15 K, x2 = 0.3004): 25.85 ± 0.29 mN/m
surface tension liquid-gas ([2]; 313.15 K, x2 = 0.4007): 25.26 ± 0.28 mN/m
surface tension liquid-gas ([2]; 313.15 K, x2 = 0.4991): 24.73 ± 0.28 mN/m
surface tension liquid-gas ([2]; 313.15 K, x2 = 0.6006): 24.23 ± 0.27 mN/m
surface tension liquid-gas ([2]; 313.15 K, x2 = 0.7002): 23.77 ± 0.27 mN/m
surface tension liquid-gas ([2]; 313.15 K, x2 = 0.7999): 23.32 ± 0.26 mN/m
surface tension liquid-gas ([2]; 313.15 K, x2 = 0.9007): 22.94 ± 0.26 mN/m
mass density ([2]; 313.15 K, x2 = 0): 859.54 ± 0.49 kg/m3
mass density ([2]; 313.15 K, x2 = 0.0482): 858.88 ± 0.48 kg/m3
mass density ([2]; 313.15 K, x2 = 0.1004): 858.17 ± 0.47 kg/m3
mass density ([2]; 313.15 K, x2 = 0.1494): 857.51 ± 0.46 kg/m3
mass density ([2]; 313.15 K, x2 = 0.1999): 856.82 ± 0.46 kg/m3
mass density ([2]; 313.15 K, x2 = 0.2495): 856.16 ± 0.45 kg/m3
mass density ([2]; 313.15 K, x2 = 0.2999): 855.48 ± 0.44 kg/m3
mass density ([2]; 313.15 K, x2 = 0.353): 854.74 ± 0.43 kg/m3
mass density ([2]; 313.15 K, x2 = 0.4015): 854.06 ± 0.43 kg/m3
mass density ([2]; 313.15 K, x2 = 0.4557): 853.31 ± 0.42 kg/m3
mass density ([2]; 313.15 K, x2 = 0.4996): 852.68 ± 0.42 kg/m3
mass density ([2]; 313.15 K, x2 = 0.5499): 851.99 ± 0.41 kg/m3
mass density ([2]; 313.15 K, x2 = 0.5989): 851.29 ± 0.41 kg/m3
mass density ([2]; 313.15 K, x2 = 0.6513): 850.53 ± 0.4 kg/m3
mass density ([2]; 313.15 K, x2 = 0.7005): 849.81 ± 0.4 kg/m3
mass density ([2]; 313.15 K, x2 = 0.7508): 849.12 ± 0.39 kg/m3
mass density ([2]; 313.15 K, x2 = 0.8): 848.38 ± 0.39 kg/m3
mass density ([2]; 313.15 K, x2 = 0.8503): 847.65 ± 0.38 kg/m3
mass density ([2]; 313.15 K, x2 = 0.9008): 846.87 ± 0.38 kg/m3
mass density ([2]; 313.15 K, x2 = 0.9493): 846.16 ± 0.38 kg/m3

COCCOC [1,2-dimethoxyethane]
surface tension liquid-gas ([1]; 298.15 K): 23.93 ± 0.26 mN/m
mass density ([1]; 298.15 K): 861.38 ± 0.35 kg/m3
surface tension liquid-gas ([1]; 313.15 K): 22.51 ± 0.25 mN/m
mass density ([1]; 313.15 K): 845.31 ± 0.38 kg/m3 and 845.28 ± 0.38 kg/m3
